Data from ChEMBL document CHEMBL1201862, “PubChem BioAssay data set” (2004).
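Assay format: 96-well plates, 48-hour exposure. At the GI50, growth is halved.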 Calls of active or inactive are those of the source. No stated cut-off is given here; in the data, active = GI50 up to about 1.1 µM and inactive = higher.

Legend:
Assay in all cases: NCI-60 cell line screen, 48 h
LOX IMVI = test system: LOX IMVI
SF-539 = test system: SF-539
A549 = test system: A549
KM12 = test system: KM12
NCI-H226 = test system: NCI-H226
SW-620 = test system: SW-620
RXF 393 = test system: RXF 393
OVCAR-4 = test system: OVCAR-4
MOLT-4 = test system: MOLT-4
SNB-75 = test system: SNB-75
SF-295 = test system: SF-295
HOP-92 = test system: HOP-92
SK-MEL-28 = test system: SK-MEL-28
HT-29 = test system: HT-29
TK-10 = test system: TK-10
UACC-62 = test system: UACC-62
COLO 205 = test system: COLO 205
A498 = test system: A498

Row | SMILES | GI50 (LOX IMVI) | GI50 (SF-539) | GI50 (A549) | GI50 (KM12) | GI50 (NCI-H226) | GI50 (SW-620) | GI50 (RXF 393) | GI50 (OVCAR-4) | GI50 (MOLT-4) | GI50 (SNB-75) | GI50 (SF-295) | GI50 (HOP-92) | GI50 (SK-MEL-28) | GI50 (HT-29) | GI50 (TK-10) | GI50 (UACC-62) | GI50 (COLO 205) | GI50 (A498)
1 | CCOC(=O)c1ccc(O)cc1 [ETHYLPARABEN] | > 100 µM (inactive) | > 100 µM (inactive) | > 100 µM (inactive) | > 100 µM (inactive) | > 100 µM (inactive) | > 100 µM (inactive) | > 100 µM (inactive) | > 100 µM (inactive) | > 100 µM (inactive) | > 100 µM (inactive) | > 100 µM (inactive) | > 100 µM (inactive) | > 100 µM (inactive) | > 100 µM (inactive) | > 100 µM (inactive) | > 100 µM (inactive) | > 100 µM (inactive) | –
2 | COc1ccc(-c2ccc(CC(=O)O)cc2)cc1OC | – | – | > 100 µM (inactive) | > 100 µM (inactive) | > 100 µM (inactive) | > 100 µM (inactive) | – | > 100 µM (inactive) | > 100 µM (inactive) | 97.5 µM (inactive) | > 100 µM (inactive) | > 100 µM (inactive) | > 100 µM (inactive) | > 100 µM (inactive) | > 100 µM (inactive) | > 100 µM (inactive) | > 100 µM (inactive) | > 100 µM (inactive)
3 | O=C(O)CSc1ccc2nc3ccccc3c(O)c2c1 | > 100 µM (inactive) | – | > 100 µM (inactive) | – | > 100 µM (inactive) | > 100 µM (inactive) | – | > 100 µM (inactive) | > 100 µM (inactive) | – | > 100 µM (inactive) | > 100 µM (inactive) | > 100 µM (inactive) | > 100 µM (inactive) | > 100 µM (inactive) | > 100 µM (inactive) | > 100 µM (inactive) | > 100 µM (inactive)
4 | COc1cc2c(cc1OC)C(=O)Cc1ccc3c(c1CNCC2)OCO3 | – | > 100 µM (inactive) | > 100 µM (inactive) | > 100 µM (inactive) | – | > 100 µM (inactive) | – | > 100 µM (inactive) | > 100 µM (inactive) | > 100 µM (inactive) | > 100 µM (inactive) | – | > 100 µM (inactive) | > 100 µM (inactive) | > 100 µM (inactive) | > 100 µM (inactive) | > 100 µM (inactive) | > 100 µM (inactive)
5 | CC(=O)O[C@]1(C(C)=O)CC[C@H]2[C@@H]3C[C@H](C)C4=CC(=O)C=C[C@]4(C)[C@@]3(F)[C@@H](O)C[C@@]21C [FLUOROMETHOLONE ACETATE] | 63.5 µM (inactive) | > 100 µM (inactive) | 43.2 µM (inactive) | > 100 µM (inactive) | 22.2 µM (inactive) | 53.2 µM (inactive) | 23.7 µM (inactive) | 27.4 µM (inactive) | 25.2 µM (inactive) | > 100 µM (inactive) | 66.7 µM (inactive) | 85.7 µM (inactive) | 86.3 µM (inactive) | 56.1 µM (inactive) | 67 µM (inactive) | 23.7 µM (inactive) | > 100 µM (inactive) | –
6 | CCCCCCCCCCCCCCCCCCC1=C(O)C(=O)C=C(OC)C1=O | – | 45.1 µM (inactive) | 46.8 µM (inactive) | 35.2 µM (inactive) | 62.5 µM (inactive) | 51.4 µM (inactive) | 43.6 µM (inactive) | 46.7 µM (inactive) | 21.1 µM (inactive) | 30.6 µM (inactive) | 36.5 µM (inactive) | 80.4 µM (inactive) | 36.4 µM (inactive) | 88.9 µM (inactive) | 40.4 µM (inactive) | 27.8 µM (inactive) | 48.5 µM (inactive) | > 100 µM (inactive)
7 | CC1=NN(C(=O)Cc2ccccc2)C(=O)/C1=C\c1ccco1 | > 100 µM (inactive) | > 100 µM (inactive) | > 100 µM (inactive) | > 100 µM (inactive) | > 100 µM (inactive) | > 100 µM (inactive) | – | > 100 µM (inactive) | > 100 µM (inactive) | > 100 µM (inactive) | > 100 µM (inactive) | – | > 100 µM (inactive) | > 100 µM (inactive) | > 100 µM (inactive) | – | > 100 µM (inactive) | –
8 | O=C1c2ccccc2C(=O)C1(O)c1c[nH]c2ccccc12 | > 100 µM (inactive) | > 100 µM (inactive) | > 100 µM (inactive) | > 100 µM (inactive) | – | > 100 µM (inactive) | – | > 100 µM (inactive) | > 100 µM (inactive) | > 100 µM (inactive) | > 100 µM (inactive) | > 100 µM (inactive) | > 100 µM (inactive) | > 100 µM (inactive) | > 100 µM (inactive) | > 100 µM (inactive) | > 100 µM (inactive) | –
9 | CN(C)c1ccc(/C=C/C(=O)C(C)(C)C)cc1Br | – | 25.1 µM (inactive) | 39.9 µM (inactive) | 24.1 µM (inactive) | – | 27.7 µM (inactive) | – | 19.9 µM (inactive) | 21.2 µM (inactive) | 20.1 µM (inactive) | 40.3 µM (inactive) | – | 17.8 µM (inactive) | 31.8 µM (inactive) | 30.8 µM (inactive) | 16.7 µM (inactive) | 25.7 µM (inactive) | 41.1 µM (inactive)
10 | NCCSc1nc(N)c2ncn(C3OC(CO)C(O)C3O)c2n1 (stereo not drawn) | > 100 µM (inactive) | > 100 µM (inactive) | > 100 µM (inactive) | > 100 µM (inactive) | > 100 µM (inactive) | > 100 µM (inactive) | – | > 100 µM (inactive) | > 100 µM (inactive) | > 100 µM (inactive) | > 100 µM (inactive) | > 100 µM (inactive) | > 100 µM (inactive) | > 100 µM (inactive) | > 100 µM (inactive) | > 100 µM (inactive) | > 100 µM (inactive) | > 100 µM (inactive)
11 | COCCOCOC(CCCCO)c1cc(C)c(O[Si](C)(C)C(C)(C)C)c(C)c1 (stereo not drawn) | 5.66 µM (inactive) | 12.4 µM (inactive) | 3.68 µM (inactive) | 4.59 µM (inactive) | 2.41 µM (inactive) | 7.31 µM (inactive) | 2.26 µM (inactive) | – | 2.86 µM (inactive) | 10.6 µM (inactive) | 3.97 µM (inactive) | – | 12.3 µM (inactive) | – | 13.4 µM (inactive) | 12.2 µM (inactive) | 7.71 µM (inactive) | 12.4 µM (inactive)
12 | COc1ccccc1/N=N/c1c(-c2ccccc2)nn(C(=O)CC(=O)Nc2ccccc2Cl)c1-c1ccccc1 | > 100 µM (inactive) | > 100 µM (inactive) | > 100 µM (inactive) | > 100 µM (inactive) | > 100 µM (inactive) | > 100 µM (inactive) | 24.6 µM (inactive) | > 100 µM (inactive) | 81.8 µM (inactive) | > 100 µM (inactive) | > 100 µM (inactive) | – | > 100 µM (inactive) | 99.3 µM (inactive) | > 100 µM (inactive) | > 100 µM (inactive) | > 100 µM (inactive) | > 100 µM (inactive)
13 | CC(C)[C@@H](C)CC[C@@H](C)C1CC=C2[C@@H]3CCC4C[C@@H](O[Si](C)(C)C(C)(C)C)CC[C@]4(C)C3CC[C@@]21C (stereo partly drawn) | – | > 100 µM (inactive) | > 100 µM (inactive) | > 100 µM (inactive) | > 100 µM (inactive) | > 100 µM (inactive) | > 100 µM (inactive) | > 100 µM (inactive) | > 100 µM (inactive) | > 100 µM (inactive) | – | – | > 100 µM (inactive) | – | > 100 µM (inactive) | > 100 µM (inactive) | > 100 µM (inactive) | > 100 µM (inactive)
14 | CC1=C(C(=O)Nc2cccc(Cl)c2)C(c2ccccc2F)C(C(=O)Nc2cccc(Cl)c2)=C(C)N1 | 7.1 µM (inactive) | 13.9 µM (inactive) | 7.78 µM (inactive) | 7.55 µM (inactive) | 11.3 µM (inactive) | 21.6 µM (inactive) | 7.24 µM (inactive) | 5.83 µM (inactive) | 2.51 µM (inactive) | 6.79 µM (inactive) | 17.3 µM (inactive) | 1.15 µM (inactive) | 10.6 µM (inactive) | 5.43 µM (inactive) | 21.5 µM (inactive) | – | 11.2 µM (inactive) | 13.9 µM (inactive)
15 | N#CC1=C(N)n2c(s/c(=C\c3ccc(Cl)cc3)c2=O)=C(c2nc3ccccc3[nH]2)C1c1ccc(Cl)cc1 (stereo not drawn) | 1.65 µM (inactive) | 1.98 µM (inactive) | 3.32 µM (inactive) | 1.42 µM (inactive) | 1.91 µM (inactive) | 1.37 µM (inactive) | – | 2.01 µM (inactive) | 1.47 µM (inactive) | 2.77 µM (inactive) | – | 0.203 µM (active) | 1.53 µM (inactive) | – | 0.596 µM (active) | 1.23 µM (inactive) | 2.51 µM (inactive) | 1.38 µM (inactive)
16 | CC1=CCC2(C#N)CCC1C2O (stereo not drawn) | > 100 µM (inactive) | > 100 µM (inactive) | > 100 µM (inactive) | > 100 µM (inactive) | > 100 µM (inactive) | – | > 100 µM (inactive) | > 100 µM (inactive) | > 100 µM (inactive) | > 100 µM (inactive) | > 100 µM (inactive) | – | > 100 µM (inactive) | > 100 µM (inactive) | > 100 µM (inactive) | > 100 µM (inactive) | > 100 µM (inactive) | > 100 µM (inactive)
17 | C=CCCC(=O)CC(=O)OCc1ccccc1 | > 100 µM (inactive) | > 100 µM (inactive) | > 100 µM (inactive) | > 100 µM (inactive) | – | > 100 µM (inactive) | – | > 100 µM (inactive) | > 100 µM (inactive) | 99.3 µM (inactive) | > 100 µM (inactive) | > 100 µM (inactive) | – | > 100 µM (inactive) | > 100 µM (inactive) | > 100 µM (inactive) | > 100 µM (inactive) | > 100 µM (inactive)
